Data on four compounds can be found in US11607384B2, “Lipid emulsified drug delivery systems for chemoprevention and treatment” (WESTERN UNIVERSITY OF HEALTH SCIENCES, priority 2017, dated 2023).

Assay [1] relates to MIA-PaCa-2 pancreatic cancer cells. The assay can be described thus: Colorimetric MTS cytotoxicity assay in MIA-PaCa-2 cells. The assay is classed as cell-based, Human. The following applies: for IC50: MIA-PaCa-2, 72 h. On the technique in general: Tetrazolium assays rely on reduction of a dye to a coloured formazan, in cell work by metabolically active cells.
Procedure: (§1) Human PC cells MIA PaCa-2 and Panc-1 were obtained from American type culture collection (ATCC) (Rockville, Md.). Cells were maintained in Dulbecco's modified Eagle's medium (DMEM) containing 10% fetal bovine serum (FBS) obtained from ATCC. Cells were cultured at 37° C. in a humidified atmosphere of 5% CO2 and 95% air.
(§2) The cell viability assay was performed according to manufacturer's protocol with the Promega CellTitre 96 Aqueous MTS reagent (Madison, Wis., USA). Briefly, 7.5×10^3 cells were seeded in 96-well plates and incubated overnight. […] At the end of the incubation period, the growth medium was removed followed by addition of 100 μl media consisting of 20% MTS and 1% of phenazine methosulfate (PMS) and the mixture was incubated for 2 h at 37° C. MTS is bio-reduced by the cells into formazan which could be measured using a microplate reader at 490 nm. Thus, the quantity of formazan product measured by absorbance is directly proportional to the number of living cells in culture. IC50 values were determined using Graph Pad Prism software (San Diego, Calif., USA). All analysis was performed in triplicate and replicated.
A study to determine IC50 (inhibitory concentration to kill 50% of cancer cells) in in vitro cell line cultures of pancreatic cancer cell line was performed.
The cell viability assay was performed according to the manufacturer's protocol with the Promega CellTitre 96 Aqueous MTS reagent (Madison, Wis., USA). Briefly, 7.5×10^3 cells were seeded in 96-well plates and were incubated overnight. The cells were treated with different concentrations of treatment groups followed by incubation for a period of 72 hours. At the end of the incubation period, the growth medium was removed followed by addition of 100 μl media consisting of 20% MTS and 1% of phenazine methosulfate (PMS) and the mixture was incubated for 2 h at 37° C. MTS is bio-reduced by the cells into formazan which could be measured using a microplate reader at 490 nm. Thus, the quantity of formazan measured by the absorbance is directly proportional to the number of living cells in culture. […] All analysis was performed in triplicate.
(§3) The cytotoxicity of the various treatment groups were evaluated using a colorimetric MTS assay. The cell viability assay was performed according to the manufacturer's protocol with the Promega CellTitre 96 Aqueous MTS reagent (Madison, Wis., USA). Briefly, 7.5×10^3 cells were seeded in 96-well plates and were incubated overnight. The cells were treated with different concentrations of treatment groups followed by incubation for a period of 72 hours. At the end of the incubation period, the growth medium was removed followed by addition of 100 μl media consisting of 20% MTS and 1% of phenazine methosulfate (PMS) and the mixture was incubated for 2 h at 37° C. MTS is bio-reduced by the cells into formazan which could be measured using a microplate reader at 490 nm. Thus, the quantity of formazan measured by the absorbance is directly proportional to the number of living cells in culture.
Cytotoxicity was evaluated in Mia PaCa 2 pancreatic cancer cells using the colorimetric MTS assay, as described above.
A study to determine IC50 in in vitro cell line cultures of pancreatic cancer cell lines was performed. […] Cytotoxicity was evaluated using the colorometric MTS assay. The cell viability assay was performed according to the manufacturer's protocol with the Promega Cell Titre 96 Aqueous MTS reagent (Madison, Wis., USA). Briefly, 7.5×10^6 cells were seeded in 96-well plates and were incubated overnight. The cells were treated with different concentrations of treatment groups followed by incubation for a period of 72 h.
Assay [2] relates to Panc-1 pancreatic cancer cells. The assay can be described thus: Colorimetric MTS cytotoxicity assay in Panc-1 cells. It is filed as cell-based, Human. The conditions noted are these: Panc-1, 72 h.
Procedure: as §1, §2, §3
The cell viability assay was performed according to the manufacturer's protocol with the Promega Cell Titre 96 Aqueous MTS reagent (Madison, Wis., USA). Briefly, 7.5×10^3 cells were seeded in 96-well plates and were incubated overnight. The cells were treated with different concentrations of treatment groups followed by incubation for a period of 72 h. At the end of the incubation period, the growth medium was removed followed by addition of 100 μl media consisting of 20% MTS and 1% of phenazine methosulfate (PMS) and the mixture was incubated for 2 h at 37° C. MTS is bio-reduced by the cells into formazan which could be measured using a microplate reader at 490 nm. Thus, the quantity of formazan measured by the absorbance is directly proportional to the number of living cells in culture.
A study to determine IC50 in in vitro cell line cultures of pancreatic cancer cell lines was performed. […] Cytotoxicity was evaluated using the colorometric MTS assay. […] MTS is bio-reduced by the cells into formazan which could be measured using a microplate reader at 490 nm. Thus, the quantity of formazan measured by the absorbance is directly proportional to the number of living cells in culture.
A study to determine IC50 in in vitro cell line cultures of pancreatic cancer cell lines was performed. […] Cytotoxicity was evaluated using the colorometric MTS assay.

Broadly, the IC50 is the midpoint of a concentration-inhibition curve. For `Nc1ccn([C@@H]2O[C@H](CO)[C@@H](O)C2(F)F)c(=O)n1` [Gemcitabine], the IC50 was determined as 692 µM in assay [1] (Homo sapiens, Table 14, varied Gemcitabine, fixed LOR (free or system 2) 125 μM, Sulforaphane 5 μM) and 539 µM in assay [2] (Homo sapiens, Table 16, varied Gemcitabine, fixed LOR (free or system 2) 125 μM, Sulforaphane 5 μM).

On to `CCOC(=O)N1CCC(=C2c3ccc(Cl)cc3CCc3cccnc32)CC1` [LOR (free), Loratadine], for which the IC50 came out at 326 µM in assay [1] (Homo sapiens, Table 4, MTS) and 357 µM in assay [2] (Homo sapiens, Table 9, MTS).

For `CC(=O)O[C@H]1C(=O)[C@@]2(C)[C@H]([C@H](OC(=O)c3ccccc3)[C@]3(O)C[C@H](OC(=O)[C@H](O)[C@@H](NC(=O)c4ccccc4)c4ccccc4)C(C)=C1C3(C)C)[C@]1(OC(C)=O)CO[C@@H]1C[C@@H]2O` [Paclitaxel], the IC50 in assay [1] (Homo sapiens, Table 18, varied Paclitaxel, fixed LOR (free or system 2) 125 μM, Sulforaphane 5 μM) came out at 1.96 µM; in assay [2] (Homo sapiens, Table 20, varied Paclitaxel, fixed LOR (free or system 2) 125 μM, Sulforaphane 5 μM), 2.33 µM.

Regarding `C[S+]([O-])CCCCN=C=S` (centres unmarked) [Sulforaphane (free), Sulforaphane], in assay [1] (Mia PaCa 2, at the concentration of 5 μM), the cell inhibition entry is listed as “did not show any significant cell inhibition”. The IC50 in assay [1] (Table 5, MTS, combinations with fixed free Sulforaphane 5 μM) is 92.2 µM; in assay [1] (Table 6, MTS, combinations with fixed free Sulforaphane 5 μM), 92.2 µM; in assay [2] (Table 10, MTS, LOR alone or in combination with free Sulforaphane), 99.6 µM; in assay [2] (Table 11, MTS, DES alone or in combination with free Sulforaphane), 99.6 µM.
